The subject of data set [1] is RAW264.7. Put plainly: Antiinflammatory activity in mouse RAW264.7 cells assessed as inhibition of LPS-induced TNF-alpha production after 6 hrs by ELISA. It is filed as functional, cell-based. The conditions noted are these: for IC50: RAW264.7, 6 h.
In data set [2] the test system is RAW264.7. Put plainly: Cytotoxicity against mouse RAW264.7 cells. It is filed as cell-based.
In data set [3] the test system is RAW264.7. Put plainly: Inhibition of NF-kappaB transcriptional activity in LPS-stimulated mouse RAW264.7 cells by dual luciferase reporter assay relative to renilla luciferase activity. It is filed as cell-based.
Data set [4] relates to RAW264.7. Put plainly: Antiinflammatory activity in mouse RAW264.7 cells assessed as inhibition of LPS-induced TNF-alpha production at 10 uM after 6 hrs by ELISA. It is filed as functional. The conditions noted are these: RAW264.7, 6 h.

Each structure is given as a SMILES string.

The term inhibition denotes the change of the read-out against control, counted positive when it falls. As usually defined, the IC50 is the concentration at which inhibition is half-maximal.

Take `O=C1C=CC[C@@H]2[C@H]3CCCN4CCC[C@@H](CN12)[C@@H]34` [SOPHOCARPINE]: in data set [1], the inhibition result is “Dose-dependent effect” and the IC50 is > 200 µM. Further, the Activity entry in data set [2] is given as “Non-toxic”. In data set [3], the fold change (FC) worked out at 3.47.

Regarding `N[C@@H]1CC(=O)N2C[C@@H]3CCCN4CCC[C@@H]([C@H]34)[C@H]2C1`, in data set [1], the inhibition result is “Dose-dependent effect” and the IC50 was > 200 µM. In addition, the Activity result in data set [2] is given as “Non-toxic”. Further, the fold change (FC) in data set [3] was 6.54.

As to `S=C1C[C@@H](NCC2CC2)C[C@@H]2[C@H]3CCCN4CCC[C@@H](CN12)[C@@H]34`, in data set [1], the inhibition entry is “Dose-dependent effect” and the IC50 was determined as 119 µM. Besides, in data set [2], the Activity entry was “Non-toxic”. In addition, in data set [4], the inhibition at 10 µM is 16.2%. The fold change (FC) in data set [3] is 7.83.

For the molecule `S=C1C[C@@H](NCc2ccccc2)C[C@@H]2[C@H]3CCCN4CCC[C@@H](CN12)[C@@H]34`, in data set [1], the inhibition result was “Dose-dependent effect” and the IC50 was 62 µM. Further, in data set [2], the Activity result was “Non-toxic”. Also, in data set [4], the inhibition at 10 µM came out at 33.9%. The same molecule had a fold change (FC) in data set [3] of 8.39.

Take `CC(C)N[C@@H]1CC(=S)N2C[C@@H]3CCCN4CCC[C@@H]([C@H]34)[C@H]2C1`: in data set [1], the inhibition result is “Dose-dependent effect” and the IC50 worked out at 52.3 µM. Further, in data set [2], the Activity result is reported as “Non-toxic”. The inhibition at 10 µM in data set [4] was determined as 24%. Further, in data set [3], the fold change (FC) was determined as 6.56.

In the case of `C=CCN[C@@H]1CC(=S)N2C[C@@H]3CCCN4CCC[C@@H]([C@H]34)[C@H]2C1`, in data set [1], the inhibition result is “Dose-dependent effect” and the half-inhibitory concentration (IC50) was 9.4 µM. Also, the Activity result in data set [2] is given as “Non-toxic”. In addition, the inhibition at 10 µM in data set [4] is 52.5%. The molecule further came in with a fold change (FC) in data set [3] of 1.47.

Regarding `OCCCN[C@@H]1CC(=S)N2C[C@@H]3CCCN4CCC[C@@H]([C@H]34)[C@H]2C1`, in data set [1], the inhibition result was “Dose-dependent effect” and the concentration for half-maximal inhibition (IC50) came out at 53.8 µM. Besides, the Activity result in data set [2] is on record as “Non-toxic”. In addition, in data set [4], the inhibition at 10 µM was 22.8%. Also, the fold change (FC) in data set [3] was found to be 3.14.

`CCN[C@@H]1CC(=S)N2C[C@@H]3CCCN4CCC[C@@H]([C@H]34)[C@H]2C1`: in data set [1], the inhibition result was “Dose-dependent effect” and the IC50 came out at 23.5 µM. Also, in data set [2], the Activity entry is “Non-toxic”. In addition, in data set [4], the inhibition at 10 µM is 41.5%. The molecule further returned a fold change (FC) in data set [3] of 1.96.

Take `OCCN[C@@H]1CC(=S)N2C[C@@H]3CCCN4CCC[C@@H]([C@H]34)[C@H]2C1`: in data set [1], the inhibition entry is “Dose-dependent effect” and the IC50 is 39.2 µM. The Activity entry in data set [2] is reported as “Non-toxic”. Moreover, the inhibition at 10 µM in data set [4] stood at 29.3%. Further, the fold change (FC) in data set [3] is 4.85.

For `CN[C@@H]1CC(=S)N2C[C@@H]3CCCN4CCC[C@@H]([C@H]34)[C@H]2C1`, in data set [1], the inhibition result is “Dose-dependent effect” and the 50% inhibitory concentration (IC50) was 93.2 µM. In addition, in data set [2], the Activity result is given as “Non-toxic”. Also, the inhibition at 10 µM in data set [4] turned out to be 9.1%. The same molecule returned a fold change (FC) in data set [3] of 3.69.

Regarding `OCCOCCN[C@@H]1CC(=S)N2C[C@@H]3CCCN4CCC[C@@H]([C@H]34)[C@H]2C1`, in data set [1], the inhibition entry is “Dose-dependent effect” and the IC50 is 57.5 µM. Further, in data set [2], the Activity result was “Non-toxic”. Besides, the inhibition at 10 µM in data set [4] was 8.4%. This molecule displayed a fold change (FC) in data set [3] of 4.75.

Turning to `CCCN[C@@H]1CC(=S)N2C[C@@H]3CCCN4CCC[C@@H]([C@H]34)[C@H]2C1`, in data set [1], the inhibition result was “Dose-dependent effect” and the IC50 was 93.5 µM. Moreover, the Activity entry in data set [2] is given as “Non-toxic”. Also, the inhibition at 10 µM in data set [4] is 9.6%. Besides, the fold change (FC) in data set [3] turned out to be 3.4.

On to `O=C1CCC[C@@H]2[C@H]3CCCN4CCC[C@@H](CN12)[C@@H]34` [MATRINE], for which, in data set [1], the inhibition result was “Dose-dependent effect” and the IC50 is > 200 µM. For the same molecule, the Activity result in data set [2] is “Non-toxic”. Further, the fold change (FC) in data set [3] was 5.11.

The record behind these values is ChEMBL document CHEMBL1287731, “Synthesis and in vitro inhibitory activity of matrine derivatives towards pro-inflammatory cytokines” (Bioorg Med Chem Lett, 2010).
